Series [1] can be described thus: One week (7-day) stability testing, HPLC purity and XRPD form. The following applies: for Loss in purity, one week stability: open vial. The procedure: After one week the solids were analyzed by XRPD for physical stability and HPLC for purity.
Seven day stability testing was carried out for Form III at 40° C./75% RH and ambient in open vials. 80° C. was carried out in an open 2 mL vial within a closed 20 mL vial.
The crystalline Bis-Sodium Pattern 3 material underwent 7-day stability tests at 40° C./75% RH (open vial); at ambient temperature, light and humidity (open vial) and 80° C. (sealed vial), with post-stability storage XRPD and HPLC analysis. The solubility of the bis-sodium pattern 3 salt was assessed.

Series [2] is described as follows: Thermodynamic solubility studies in pH buffers. The following applies: shaken at ambient ca. 24 h. The procedure: Ca. 6 mg of the salt was weighed into a 2 mL vial and 50 μL aliquots of pH 7.4 PBS was added until dissolution was obtained. […] The preparations were analyzed by XRPD, PLM, TG/DSC, DSC, DVS, FTIR, ^1H and ^31P NMR and HPLC purity. One week stability testing was carried out, salt disproportionation and hydration studies and thermodynamic solubility.
Salt disproportionation and hydration studies were carried out as follows: Ca. 30 mg of each salt was suspended in 400 μL of the solvent systems shown in and shaken at ambient for ca. 24 h. Thermodynamic solubility studies were carried out as follows: Ca. 30 mg of each salt was suspended in 400 μL of the solvent systems shown in and shaken at ambient for ca. 24 h.

Series [3] is described as follows: Primary salt screen: XRPD re-analysis after drying at 40° C. and after storage at 40° C./75% RH. It counts as physicochemical. The conditions noted are these: for Remained pattern after 40° C.: dried at 40° C. for ca. two days; for Remained pattern after 40° C./78% RH: stored for ca. 24 h. The procedure:
Salt crystallization screening was carried out as follows. Ca. […] The experiments were temperature cycled between ambient and 40° C. in 4 hour cycles for ca. 72 h. […] The solids were then isolated via centrifuge filter and analyzed by XRPD. Selected salts were dried at 40° ° C. for ca. two days and re-analyzed by XRPD. The salts were also characterized by TG/DSC and ^1H NMR.

The nature of series [4]: Salt disproportionation and hydration studies. It counts as physicochemical. The conditions noted are these: ambient, ca. 24 h; for Hydration studies, outcome: 3 water activities; for Disproportionation experiment, outcome: water.
Series [5] is described as follows: Dynamic vapour sorption (DVS). It counts as physicochemical. The procedure:
Dynamic Vapour Sorption (DVS). Approximately 10-20 mg of sample was placed into a mesh vapour sorption balance pan and loaded into a DVS Advantage dynamic vapour sorption balance by Surface Measurement Systems. The sample was subjected to a ramping profile from 40-90% relative humidity (RH) at 10% increments, maintaining the sample at each step until a stable weight had been achieved (dm/dt 0.004%, minimum step length 30 minutes, maximum step length 500 minutes) at 25° C. After completion of the sorption cycle, the sample was dried using the same procedure to 0% RH and then a second sorption cycle back to 40% RH. Two cycles were performed. The weight change during the sorption/desorption cycles were plotted, allowing for the hygroscopic nature of the sample to be determined. XRPD analysis was then carried out on any solid retained.

Setting [6] is: 80° C., listed as N-(hydroxyethyl)pyrrolidine Pattern 2.
Where [7] appears, read: listed as N-(hydroxyethyl)pyrrolidine Pattern 2.

Molecules are shown by their SMILES. Entries after “also recorded” stand apart in the source; their conditions may differ. Where only a bound is given, the exact number is not on record here.

Regarding `CC(=O)C1CCC2C3CCC4=CC(=NOCOP(=O)(O)O)CCC4(C)C3CCC12C.NC(CO)(CO)CO` (stereo not shown) [Form III], the “XRPD form after one week stability” value in series [1] (80° C.) was “Form IV”.

For `CC(=O)[C@H]1CC[C@H]2[C@@H]3CCC4=CC(=NOCOP(=O)([O-])[O-])CC[C@]4(C)[C@H]3CC[C@]12C.[Na+].[Na+]` [Sodium Pattern 3], the “Decrease in purity, one week stability” value in series [1] (80° C.) was “Large drop in purity at 80 °C”; in series [1] (80° C., listed as sodium salt Pattern 3), “large drop in purity”. Also, the “XRPD form after one week stability” value was 40° C./75% RH, Pattern 5 in series [1] (80° C.) and “form conversion” in series [1] (all conditions tested). Also, the Solubility in series [2] (pH 7.4) is less than 12 mg/mL at pH 7.4.

Regarding `NCCO` [Ethanolamine], the “Remained pattern after 40° C.” value in series [3] is recorded as “Yes”.

Regarding `CC(=O)[C@H]1CC[C@H]2[C@@H]3CCC4=CC(=NOCOP(=O)(O)O)CC[C@]4(C)[C@H]3CC[C@]12C.OCCN1CCCC1.OCCN1CCCC1` [Form V], the “Loss in purity, one week stability” value is “No loss in purity” in series [1] (40° C./75% RH); “No loss in purity at ambient” in series [1] (40° C./75% RH, listed as N-(hydroxyethyl)pyrrolidine Pattern 2); “No loss in purity” in series [1] (ambient light and temperature); “No loss in purity at ambient” in series [1] (ambient light and temperature, listed as N-(hydroxyethyl)pyrrolidine Pattern 2). Also, the “Decrease in purity, one week stability” value is on record as 0.9 % Area in series [1] (80° C.) and “& 40° C./75% RH. 0.9% Area” in series [1] (setting [6]). The “XRPD form after one week stability” value in series [1] (80° C.) is “some minor changes”; in series [1] (setting [6]) it was “minor changes at 80 °C”; in series [1] (all conditions tested), “Form V remained; also recorded: remain unchanged”; in series [1] (all conditions tested, listed as N-(hydroxyethyl)pyrrolidine Pattern 2), “Remained Pattern 2, some”. The “Hydration studies, outcome” value in series [4] is “Solutions were obtained; also recorded: no solids after 24 h”; in series [4] (setting [7]) it was “Solutions obtained”. The “Disproportionation experiment, outcome” value in series [4] is reported as “Solutions were obtained; also recorded: no solids after 24 h”; in series [4] (setting [7]) it was “Solutions obtained”. Further, the results for the Solubility in series [2] (pH 7.4), in series [2] (pH 8) and in series [2] (pH 8.5) were more than 45 mg/mL, more than 39 mg/mL and more than 39 mg/mL, respectively. In addition, the “Post DVS XRPD form” value in series [5] is listed as “remain unchanged”. In addition, the DVS hygroscopic nature entry in series [5] (25° C.) is “hygroscopic”. Also, the “DVS total uptake at 90% RH” value in series [5] (25° C.) is given as 19.0%. For the same molecule, the “DVS total uptake at 90% RH as equivalents of water” value in series [5] (25° C.) is 7.3 equivalents of water. Besides, the “DVS uptake between 40% RH and 90% RH” value in series [5] (25° C.) was found to be 17.8%; in series [5] (25° C., listed as N-(hydroxyethyl)pyrrolidine Pattern 2), 17.8% uptake between 40 &. In addition, in series [3], the “Remained pattern after 40° C.” value is reported as “Yes”. In series [3], the “Remained pattern after 40° C./78% RH” value is given as “Yes”.

For `CCNC[C@H](O)[C@@H](O)[C@H](O)[C@H](O)CO` [N-ethyl glucamine], in series [3], the “Remained pattern after 40° C.” value was “Yes” and the “Remained pattern after 40° C./78% RH” value is given as “No. Mixture”.

Take `[K+]` [Potassium]: the “Remained pattern after 40° C.” value in series [3] is reported as “Yes”. For the same molecule, the entries for the “Remained pattern after 40° C./78% RH” value in series [3] and in series [3] (listed as potassium Pattern 1) were “No - Pattern 5” and “Pattern 5”, respectively.
